According to EP4567035A1, “NOVEL COMPOUND AS HYPOXIA-INDUCIBLE FACTOR 1(HIF-1) INHIBITOR OR VASCULAR ENDOTHELIAL GROWTH FACTOR (VEGF) INHIBITOR, AND PHARMACEUTICAL COMPOSITION COMPRISING SAME” (Nextgen Bioscience Co., Ltd., priority 2022, dated 2024):
Read-outs that look alike come from different tables or passages of the source.

Key:
HIF-1α = target: T1, HIF-1α (Homo sapiens, UniProt Q16665); experiment: Analysis of HIF-1α protein expression (Western blot) in ARPE-19 cells under mixed hypoxic condition; assay type: cell-based; conditions: concentration range at which HIF-1α expression is reduced by 50% vs untreated control
T1 construct: endogenous in cells; host or cells: ARPE-19 (ATCC CRL-2302)
T1 sequence (Q16665 whole entry): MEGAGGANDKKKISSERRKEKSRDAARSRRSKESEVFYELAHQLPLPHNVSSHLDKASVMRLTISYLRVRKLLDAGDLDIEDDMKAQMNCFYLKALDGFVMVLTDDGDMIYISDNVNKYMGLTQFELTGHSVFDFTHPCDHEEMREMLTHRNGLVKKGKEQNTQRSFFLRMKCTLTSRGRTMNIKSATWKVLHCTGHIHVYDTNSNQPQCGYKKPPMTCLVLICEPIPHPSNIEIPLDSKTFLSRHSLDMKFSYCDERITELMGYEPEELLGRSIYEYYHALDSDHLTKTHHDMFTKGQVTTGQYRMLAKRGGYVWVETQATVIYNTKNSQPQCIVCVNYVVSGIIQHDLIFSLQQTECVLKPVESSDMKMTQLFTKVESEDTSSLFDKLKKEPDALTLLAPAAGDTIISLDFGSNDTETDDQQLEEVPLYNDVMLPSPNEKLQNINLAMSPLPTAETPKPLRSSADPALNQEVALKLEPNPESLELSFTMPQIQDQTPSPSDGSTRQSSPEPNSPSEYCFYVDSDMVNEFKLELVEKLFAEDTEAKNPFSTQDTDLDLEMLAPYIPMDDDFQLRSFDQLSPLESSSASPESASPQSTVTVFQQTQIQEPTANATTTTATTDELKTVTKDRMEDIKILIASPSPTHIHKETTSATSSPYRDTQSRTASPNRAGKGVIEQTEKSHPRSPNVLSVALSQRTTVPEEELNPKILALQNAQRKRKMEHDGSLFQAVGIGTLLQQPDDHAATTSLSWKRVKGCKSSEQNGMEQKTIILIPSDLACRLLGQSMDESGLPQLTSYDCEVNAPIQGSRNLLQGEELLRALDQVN
Method in brief: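 ARPE-19 cells were pretreated 16 h or 2 h with compound (0.1 nM–10 µM, serum-free DMEM/F12), then held 1 h or 24 h in mixed hypoxia (1% O2 plus CoCl2). HIF-1α was quantified by Western blot against β-actin; the concentration range giving ≥50% reduction vs untreated control was reported.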

VEGF = experiment: Evaluation of VEGF protein secretion level (Human VEGF ELISA) in ARPE-19 cell medium under hypoxic conditions; assay type: cell-based
Method in brief: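 Human ARPE-19 cells were pretreated 2 h with compound (0.1 nM–10 µM, in DMEM/F12 with 1% FBS), then held 24 h in hypoxia (1% O2, 5% CO2). Secreted VEGF in the supernatant was quantified by ELISA (A450). The value is the concentration range giving ≥50% VEGF reduction versus untreated control.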

[1] = mixed hypoxic condition (1% oxygen + CoCl2) for 1 hour, read-out: IC50 HIF-1α Hypoxia (1 hour)
[2] = ARPE-19 cells, pretreated 2 hours, 24 hours hypoxic conditions, secreted VEGF in medium supernatant by ELISA, concentration range reducing VEGF by 50% vs untreated control, read-out: IC50 VEGF
[3] = values marked * in the table, mixed hypoxic condition (1% oxygen + CoCl2) for 24 hours, read-out: IC50 HIF-1α, Hypoxia(24h)
[4] = ARPE-19 cells, pretreated 2 hours, 24 hours hypoxic conditions, ELISA, read-out: concentration at which the secreted VEGF protein level was suppressed to less than 50%
[5] = Experimental Example 2 (HIF-1α Western blot), read-out: concentration at which the expression level of VEGF was suppressed to less than 50%

| DC50 (HIF-1α; [1]) [nM] | IC50 (VEGF; [2]) [nM] | DC50 (HIF-1α; [3]) [nM] | IC50 (VEGF; [4]) [nM] | IC50 (VEGF; [5]) [nM] | Compound |
| --- | --- | --- | --- | --- | --- |
|  | 100 to 1000 | 100 to 1000 |  |  | O=C1CC[C@@H](c2nc3ncnc(C(=O)NCc4cc(F)cc(-c5cnn(-c6ccc(F)cc6)c5)c4)c3[nH]2)C1 [Example 86, (R)-N-(3-fluoro-5-(1-(4-fluorophenyl)-1H-pyrazol-4-yl)benzyl)-8-(3-oxocyclopentyl)-7H-purine-6-carboxamide] |
|  | 100 to 1000 | 100 to 1000 |  |  | O=C(NCc1cc(F)cc(-c2cnn(-c3ccc(F)cc3)c2)c1)c1ncnc2nc(C3CC(F)(F)C3)[nH]c12 [Example 92, 8-(3,3-Difluorocyclobutyl)-N-(3-fluoro-5-(1-(4-fluorophenyl)-1H-pyrazol-4-yl)benzyl)-7H-purine-6-carboxamide] |
|  | > 10000 | > 10000 |  |  | O=C(NCc1cc(F)cc(-c2cnn(-c3ccc(F)cc3)c2)c1)c1ncnc2nc(C3CC(C(=O)O)C3)[nH]c12 (stereo not drawn) [Example 106, 3-(6-((3-Fluoro-5-(1-(4-fluorophenyl)-1H-pyrazol-4-yl)benzyl)carbamoyl)-7H-purin-8-yl)cyclobutanecarboxylic acid] |
|  | 100 to 1000 | < 100 |  |  | NC(=O)c1ccc(-n2cc(-c3cc(F)cc(CNC(=O)c4ncnc5nc(C6CCCC6)[nH]c45)c3)cn2)cc1 [Example 53, N-(3-(1-(4-carbamoylphenyl)-1H-pyrazol-4-yl)-5-fluorobenzyl)-8-cyclopentyl-7H-purine-6-carboxamide] |
| < 100 | 100 to 1000 |  |  |  | O=C(O)c1ccc(-n2cc(-c3cc(F)cc(CNC(=O)c4ncnc5nc(C6CCCC6)[nH]c45)c3)cn2)cc1 [Example 54, 4-(4-(3-((8-Cyclopentyl-7H-purine-6-carboxamido)methyl)-5-fluorophenyl)-1H-pyrazol-1-yl)benzoic acid] |
|  | < 100 | < 100 | < 100 | < 100 | O=C(NCc1cc(F)cc(-c2cnn(-c3ccc(F)nc3)c2)c1)c1ncnc2nc(C3CCC(F)(F)C3)[nH]c12 (stereo not drawn) [Example 82, 8-(3,3-Difluorocyclopentyl)-N-(3-fluoro-5-(1-(6-fluoropyridin-3-yl)-1H-pyrazol-4-yl)benzyl)-7H-purine-6-carboxamide] |
|  | < 100 | < 100 | < 100 | < 100 | N#Cc1ccc(-n2cc(-c3cc(F)cc(CNC(=O)c4ncnc5nc(C6CCCC6)[nH]c45)c3)cn2)cc1 [Example 50, N-(3-(1-(4-cyanophenyl)-1H-pyrazol-4-yl)-5-fluorobenzyl)-8-cyclopentyl-7H-purine-6-carboxamide] |
|  | 100 to 1000 | < 100 |  |  | O=C(NCc1cc(Cl)cc(-c2cnn(-c3ccc(F)cc3)c2)c1)c1ncnc2nc(C3CCCC3)[nH]c12 [Example 104, N-(3-chloro-5-(1-(4-fluorophenyl)-1H-pyrazol-4-yl)benzyl)-8-cyclopentyl-7H-purine-6-carboxamide] |
|  | > 10000 | 100 to 1000 |  |  | O=C(NCc1cc(F)cc(-n2cc(-c3ccc(F)cc3)cn2)c1)c1ncnc2nc(C3CCCC3)[nH]c12 [Example 149, 8-Cyclopentyl-N-(3-fluoro-5-(4-(4-fluorophenyl)-1H-pyrazol-1-yl)benzyl)-7H-purine-6-carboxamide] |
|  | 100 to 1000 | < 100 |  |  | O=C(NCc1cc(F)cc(-c2cnn(-c3cccc(F)c3)c2)c1)c1ncnc2nc(C3CCCC3)[nH]c12 [Example 46, 8-Cyclopentyl-N-(3-fluoro-5-(1-(3-fluorophenyl)-1H-pyrazol-4-yl)benzyl)-7H-purine-6-carboxamide] |

The next lines start with the compound.

| Compound | DC50 (HIF-1α; [1]) [nM] | IC50 (VEGF; [2]) [nM] | DC50 (HIF-1α; [3]) [nM] | IC50 (VEGF; [4]) [nM] | IC50 (VEGF; [5]) [nM] |
| --- | --- | --- | --- | --- | --- |
| CN1CCC[C@@H]1c1nc2ncnc(C(=O)NCc3cc(F)cc(-c4cnn(C)c4)c3)c2[nH]1 [Example 66, (R)-N-(3-fluoro-5-(1-methyl-1H-pyrazol-4-yl)benzyl)-8-(1-methylpyrrolidin-2-yl)-7H-purine-6-carboxamide] | < 100 | 1000 to 10000 |  |  |  |
| O=C(NCc1cc(F)cc(Nc2ccc(Cl)cc2F)c1)c1ncnc2nc(C3CCCC3)[nH]c12 [Example 20, N-(3-((4-chloro-2-fluorophenyl)amino)-5-fluorobenzyl)-8-cyclopentyl-7H-purine-6-carboxamide] | < 100 | 100 to 1000 |  |  |  |
| CN1CCC(Nc2cc(F)cc(CNC(=O)c3ncnc4nc(C5CCCC5)[nH]c34)c2)CC1 [Example 129, 8-Cyclopentyl-N-(3-fluoro-5-((1-methylpiperidin-4-yl)amino)benzyl)-7H-purine-6-carboxamide] |  | > 10000 | 1000 to 10000 |  |  |
| Cn1ccc(Nc2cc(F)cc(CNC(=O)c3ncnc4nc(C5CCCC5)[nH]c34)c2)n1 [Example 118, 8-Cyclopentyl-N-(3-fluoro-5-((1-methyl-1H-pyrazol-3-yl)amino)benzyl)-7H-purine-6-carboxamide] |  | 100 to 1000 | < 100 |  |  |
| CS(=O)(=O)c1ccc(-n2cc(-c3cc(F)cc(CNC(=O)c4ncnc5nc(C6CCCC6)[nH]c45)c3)cn2)cc1 [Example 28, 8-Cyclopentyl-N-(3-fluoro-5-(1-(4-(methylsulfonyl)phenyl)-1H-pyrazol-4-yl)benzyl)-7H-purine-6-carboxamide] | < 100 | 100 to 1000 |  |  |  |
| O=C(NCc1cc(F)cc(Nc2cccnc2)c1)c1ncnc2nc(C3CCCC3)[nH]c12 [Example 10, 8-Cyclopentyl-N-(3-fluoro-5-(pyridin-3-ylamino)benzyl)-7H-purine-6-carboxamide] | < 100 | 100 to 1000 |  |  |  |
| CN1CCC[C@H]1c1nc2ncnc(C(=O)NCc3cc(F)cc(-c4cnn(C)c4)c3)c2[nH]1 [Example 63, (S)-N-(3-fluoro-5-(1-methyl-1H-pyrazol-4-yl)benzyl)-8-(1-methylpyrrolidin-2-yl)-7H-purine-6-carboxamide] | 100 to 1000 | 1000 to 10000 |  |  |  |
| O=C(NCc1cc(F)cc(-c2cnn(-c3ccc(C(F)(F)F)nc3)c2)c1)c1ncnc2nc(C3CCCC3)[nH]c12 [Example 44, 8-Cyclopentyl-N-(3-fluoro-5-(1-(6-(trifluoromethyl)pyridin-3-yl)-1H-pyrazol-4-yl)benzyl)-7H-purine-6-carboxamide] | < 100 | 100 to 1000 |  |  |  |
| [2H]C([2H])([2H])n1cc(Nc2cc(F)cc(CNC(=O)c3ncnc4nc(C5CCCC5)[nH]c34)c2)cn1 [Example 151, 8-Cyclopentyl-N-(3-fluoro-5-((1-(methyl-d3)-1H-pyrazol-4-yl)amino)benzyl)-7H-purine-6-carboxamide] |  | 100 to 1000 | < 100 |  |  |
| O=C(NCc1cc(F)cc(-c2cnn(-c3ccc(F)cc3)c2)c1)c1ccnc2nc(C3CCCC3)[nH]c12 [Example 107, 2-Cyclopentyl-N-(3-fluoro-5-(1-(4-fluorophenyl)-1H-pyrazol-4-yl)benzyl)-1H-imidazo [4,5-b] pyridine-7-carboxamide] |  | > 10000 | > 10000 |  |  |
| Cc1cc(-n2cc(-c3cc(F)cc(CNC(=O)c4ncnc5nc(C6CCCC6)[nH]c45)c3)cn2)ccn1 [Example 42, 8-Cyclopentyl-N-(3-fluoro-5-(1-(2-methylpyridin-4-yl)-1H-pyrazol-4-yl)benzyl)-7H-purine-6-carboxamide] |  | < 100 | < 100 | < 100 | < 100 |
| Cn1cc(Nc2cc(F)cc(CNC(=O)c3ncnc4nc(C5CCCC5)[nH]c34)c2)cn1 [Example 8, 8-Cyclopentyl-N-(3-fluoro-5-((1-methyl-1H-pyrazol-4-yl)amino)benzyl)-7H-purine-6-carboxamide] | < 100 | 100 to 1000 |  |  |  |
| O=C(NCc1cc(F)cc(-c2cnn(C3CCOC3)c2)c1)c1ncnc2nc(C3CCCC3)[nH]c12 (stereo not drawn) [Example 140, 8-Cyclopentyl-N-(3-fluoro-5-(1-(tetrahydrofuran-3-yl)-1H-pyrazol-4-yl)benzyl)-7H-purine-6-carboxamide] |  | > 10000 | < 100 |  |  |
| N#Cc1cccc(-n2cc(-c3cc(F)cc(CNC(=O)c4ncnc5nc(C6CCCC6)[nH]c45)c3)cn2)c1 [Example 23, N-(3-(1-(3-Cyanophenyl)-1H-pyrazol-4-yl)-5-fluorobenzyl)-8-cyclopentyl-7H-purine-6-carboxamide] | < 100 | 100 to 1000 |  |  |  |
| O=C(NCc1cc(F)cc(Nc2ccccc2)c1)c1ncnc2nc(C3CCCC3)[nH]c12 [Example 15, 8-Cyclopentyl-N-(3-fluoro-5-(phenylamino)benzyl)-7H-purine-6-carboxamide] | < 100 | 100 to 1000 |  |  |  |
| O=C(NCc1cc(F)cc(-c2cnn(Cc3cccc(C(F)(F)F)c3)c2)c1)c1ncnc2nc(C3CCCC3)[nH]c12 [Example 29, 8-Cyclopentyl-N-(3-fluoro-5-(1-(3-(trifluoromethyl)benzyl)-1H-pyrazol-4-yl)benzyl)-7H-purine-6-carboxamide] | < 100 | 100 to 1000 |  |  |  |
| COc1ccc(Nc2cc(F)cc(CNC(=O)c3ncnc4nc(C5CCCC5)[nH]c34)c2)cc1 [Example 35, 8-Cyclopentyl-N-(3-fluoro-5-((4-methoxyphenyl)amino)benzyl)-7H-purine-6-carboxamide] | < 100 | 100 to 1000 |  |  |  |
